Experiments:
Assay type in all cases: cell-based
A549 cells [1] = assay: Incorporation of modified nucleosides into newly synthesized DNA, detection with HT-LgBiT/HT-SmBiT (NANOBiT), Example 1; conditions: A549 500 cells/well, 10 uM, 4 hours, fixed, permeabilized, DNA denatured; HT-LgBiT and HT-SmBiT 50 nM
Experimental: A549 cells plated at 500 cells/well were cultured in medium containing PBI-7931 (FIG. 2A, top) or PBI-7960 (FIG. 2A, bottom) at 10 uM final concentration for 4 hours. Cells without modified nucleosides were used as control. After culturing, the media was removed, cells fixed, permeabilized, and DNA denatured using acid treatment. […] Following a one-hour incubation, NANOLUC substrate was added, and luminescence was measured (FIG. 2B).

A549 cells [2] = assay: Simultaneous incorporation of modified nucleosides, all probes added together, NanoBiT detection, Example 8; conditions: all probes added together at 5 or 12.5 uM each; A549 5,000 and 1,000 cells per well; compared to control cells
Experimental: (§1) Cells without modified nucleosides were used as a control (brown bars). Incorporation of modified nucleosides into DNA was determined by removing the media, fixing and permeabilizing the cells, denaturing DNA, and incubating with HaloTag-LgBiT (HT-LgBiT) and HaloTag-SmBiT (HT-SmBiT) diluted in PBS with 0.01% BSA at 50 nM final concentration. After 2 hours incubation, the reagents were removed, the samples were washed with PBS, NanoLuc substrate was added, and luminescence was measured (FIG. 4).
The experiment was conducted with A549 cells plated at 5,000 and 1,000 cells per well as described in Example 7.

A549 cells [3] = assay: Incorporation of modified chloroalkane nucleoside measured without DNA denaturation, Example 9; conditions: A549 5000 cells/well, 10 uM, 0.5 hours or 4 hours; HT-LgBiT and HT-SmBiT 25 nM
Experimental: A549 cells plated at 5000 cells/well were cultured in medium containing PBI-7960 at 10 uM final concentration for 0.5 hours (light blue bar) or 4 hours (dark blue bar). Cells without modified nucleosides were used as control (brown bar). Incorporation of modified nucleosides into DNA was determined by removing the media, fixing and permeabilizing the cells and incubating with HT-LgBiT and HT-SmBiT diluted in PBS with 0.01% BSA at 25 nM final concentration. After 1 hour incubation, the NanoLuc substrate was added, and luminescence was measured.

A549 cells [4] = assay: Incorporation of modified nucleosides into newly synthesized DNA, NanoBiT detection, Example 7; conditions: A549 5000 cells/well, 20 uM or 50 uM, 4.5 hours
Experimental: as §1, with “A549 cells plated at 5000 cells/well were cultured in medium containing PBI-9391, PBI-9392, or PBI-9393 at 20 uM (light blue bars) or 50 uM (dark blue bars) final concentration for 4.5 hours. Cells” for “Cells”

A549 cells [5] = assay: Inhibition of DNA replication measured by modified nucleoside incorporation and NANOBiT luminescence, Example 2; conditions: A549 2,000 cells/well, increasing doxorubicin for 2 hours, then PBI-7931 or -7960 at 10 uM for 4 hours
Experimental: A549 cells plated at 2,000 cells/well were treated with increasing concentrations of the DNA replication inhibitor doxorubicin for 2 hours in a tissue culture incubator. […] No compound was added to control cells. To measure the amount of newly synthesized DNA, HT-LgBiT and HT-SmBiT were added to the cells at 50 nM final concentration.

With O=C(NCCOCCOCCCCCCCl)OCC#Cc1cn([C@H]2CC(O)[C@@H](CO)O2)c(=O)[nH]c1=O (some centres unmarked) [PBI-7931] as the compound, how does the “Luminescence following incorporation of haloalkyl-modified nucleosides into newly-synthesized DNA (FIG. 2B)” value (A549 cells [1]) read?
Its value is “Luminescence detected”.

Which results are given for O=C(NCC#Cc1cn([C@H]2C[C@H](O)[C@@H](CO)O2)c(=O)[nH]c1=O)c1ccc(C(=O)NCCOCCOCCCCCCCl)cc1 [PBI-7960, N1-(2-(2-((6-chlorohexyl)oxy)ethoxy)ethyl)-N4-(3-(1-((2R,4S,5R)-4-hydroxy-5-(hydroxymethyl)tetrahydrofuran-2-yl)-2,4-dioxo-1,2,3,4-tetrahydropyrimidin-5-yl)prop-2-yn-1-yl)terephthalamide]?
Light output after simultaneous incorporation into newly synthesized DNA (FIG. 5) (A549 cells [2]): increase in light output; Luminescence following incorporation of haloalkyl-modified nucleosides into newly-synthesized DNA (FIG. 2B) (A549 cells [1]): Luminescence detected; Incorporation detected without DNA denaturation (FIG. 6) (A549 cells [3]): detected without DNA denaturation

With Nc1nc(=O)n([C@H]2C[C@H](O)[C@@H](CO)O2)cc1C#CCOC(=O)NCCOCCOCCCCCCCl [PBI-9391, 3-(4-amino-1-((2R,4S,5R)-4-hydroxy-5-(hydroxymethyl)tetrahydrofuran-2-yl)-2-oxo-1,2-dihydropyrimidin-5-yl)prop-2-yn-1-yl (2-(2-((6-chlorohexyl)oxy)ethoxy)ethyl)carbamate] as the compound, how does the “Light output after simultaneous incorporation into newly synthesized DNA (FIG. 5)” value (“Light output” below) (A549 cells [2]) read?
The value was “increase in light output”.

What about the “Incorporation into newly synthesized DNA detected via NanoBiT (FIG. 4)” value (A549 cells [4]) of the same compound?
Its value is “incorporated into newly synthesized DNA”.

How did the “Light output” value (A549 cells [2]) turn out when Nc1nc(=O)c2c(C#CCOC(=O)NCCOCCOCCCCCCCl)cn([C@H]3C[C@H](O)[C@@H](CO)O3)c2[nH]1 [PBI-9392, 3-(2-amino-7-((2R,4S,5R)-4-hydroxy-5-(hydroxymethyl)tetrahydrofuran-2-yl)-4-oxo-4,7-dihydro-1H-pyrrolo[2,3-d]pyrimidin-5-yl)prop-2-yn-1-yl(2-(2-((6-chlorohexyl)oxy)ethoxy)ethyl)carbamate] was run?
The value was “increase in light output”.

And the “Incorporation into newly synthesized DNA detected via NanoBiT (FIG. 4)” value (A549 cells [4])?
Its value is “incorporated into newly synthesized DNA”.

For Nc1ncnc2c1c(C#CCOC(=O)NCCOCCOCCCCCCCl)cn2[C@H]1C[C@H](O)[C@@H](CO)O1 [PBI-9393, 3-(4-amino-7-((2R,4S,5R)-4-hydroxy-5-(hydroxymethyl)tetrahydrofuran-2-yl)-7H-pyrrolo[2,3-d]pyrimidin-5-yl)prop-2-yn-1-yl(2-(2-((6-chlorohexyl)oxy)ethoxy)ethyl)carbamate], which “Light output” value (A549 cells [2]) is on record?
Its value is “increase in light output”.

What about the “Incorporation into newly synthesized DNA detected via NanoBiT (FIG. 4)” value (A549 cells [4]) of the same compound?
The value was “incorporated into newly synthesized DNA”.

How did the “Inhibition of DNA synthesis, detected by reduction in luminescence (FIG. 3)” value (A549 cells [5]) turn out when COc1cccc2c1C(=O)c1c(O)c3c(c(O)c1C2=O)C[C@@](O)(C(=O)CO)C[C@@H]3O[C@H]1C[C@H](N)[C@H](O)[C@H](C)O1 [doxorubicin] was run?
The value was “Inhibition of DNA synthesis”.

Source: patent publication US12606863B2, “Bioluminescent detection of DNA synthesis” (Promega Corporation, priority 2021, dated 2026)
